{"source": "paper PMC6268188", "about": "“Comparative Studies of the (Anti) Mutagenicity of Baccharis dracunculifolia and Artepillin C by the Bacterial Reverse Mutation Test” (Molecules, 2012)", "key": {"S. typhimurium TA98": {"test_system": "S. typhimurium TA98", "assay": "Antimutagenicity assay (Ames test with known mutagens), strain TA98", "assay_type": "cell-based, Salmonella typhimurium"}, "[1]": {"test_system": "mouse micronucleus and comet", "design": "method as in PMID 21259290", "details": "mouse micronucleus and comet assays; cited from earlier work"}, "[2]": {"details": "0.69 µg/plate + B[a]P 1.0 μg/plate, TA 98, + S9"}, "[3]": {"details": "0.69 µg/plate + NOPD 10.0 μg/plate, TA 98, − S9"}, "[4]": {"details": "1.37 µg/plate + B[a]P 1.0 μg/plate, TA 98, + S9"}, "[5]": {"details": "1.37 µg/plate + NOPD 10.0 μg/plate, TA 98, − S9"}, "[6]": {"details": "2.75 µg/plate + B[a]P 1.0 μg/plate, TA 98, + S9"}, "[7]": {"details": "2.75 µg/plate + NOPD 10.0 μg/plate, TA 98, − S9"}, "[8]": {"details": "5.49 µg/plate + B[a]P 1.0 μg/plate, TA 98, + S9"}, "[9]": {"details": "5.49 µg/plate + NOPD 10.0 μg/plate, TA 98, − S9"}, "[10]": {"details": "[…] + B[a]P 1.0 μg/plate, TA 98, + S9"}, "[11]": {"details": "[…] + NOPD 10.0 μg/plate, TA 98, − S9"}}}
{"smiles": "CC(C)=CCc1cc(/C=C/C(=O)O)cc(CC=C(C)C)c1O", "note": "[ArtC, 3-{4-hydroxy-3,5-di(3-methyl-2-butenyl)phenyl}-2(E)-propenoic acid]", "values": [{"measurement": "% inhibition", "setting": "S. typhimurium TA98; [2]", "value": 38, "unit": "%"}, {"measurement": "antimutagenic effect class", "setting": "S. typhimurium TA98; [2]", "value": "** (moderate effect (25% - 40% inhibition))"}, {"measurement": "% inhibition", "setting": "S. typhimurium TA98; [3]", "value": 37, "unit": "%"}, {"measurement": "Number of revertants (M ± SD)/ plate", "setting": "S. typhimurium TA98; [3]", "value": "526 ± 12", "unit": "revertants/plate"}, {"measurement": "antimutagenic effect class", "setting": "S. typhimurium TA98; [3]", "value": "** (moderate effect (25% - 40% inhibition))"}, {"measurement": "% inhibition", "setting": "S. typhimurium TA98; [4]", "value": 43, "unit": "%"}, {"measurement": "antimutagenic effect class", "setting": "S. typhimurium TA98; [4]", "value": "*** (strong antimutagenic effect (> 40% inhibition))"}, {"measurement": "% inhibition", "setting": "S. typhimurium TA98; [5]", "value": 38, "unit": "%"}, {"measurement": "Number of revertants (M ± SD)/ plate", "setting": "S. typhimurium TA98; [5]", "value": "520 ± 18", "unit": "revertants/plate"}, {"measurement": "antimutagenic effect class", "setting": "S. typhimurium TA98; [5]", "value": "** (moderate effect (25% - 40% inhibition))"}, {"measurement": "% inhibition", "setting": "S. typhimurium TA98; [6]", "value": 56, "unit": "%"}, {"measurement": "antimutagenic effect class", "setting": "S. typhimurium TA98; [6]", "value": "*** (strong antimutagenic effect (> 40% inhibition))"}, {"measurement": "% inhibition", "setting": "S. typhimurium TA98; [7]", "value": 42, "unit": "%"}, {"measurement": "Number of revertants (M ± SD)/ plate", "setting": "S. typhimurium TA98; [7]", "value": "484 ± 31", "unit": "revertants/plate"}, {"measurement": "antimutagenic effect class", "setting": "S. typhimurium TA98; [7]", "value": "*** (strong antimutagenic effect (> 40% inhibition))"}, {"measurement": "% inhibition", "setting": "S. typhimurium TA98; [8]", "value": 56, "unit": "%"}, {"measurement": "antimutagenic effect class", "setting": "S. typhimurium TA98; [8]", "value": "*** (strong antimutagenic effect (> 40% inhibition))"}, {"measurement": "% inhibition", "setting": "S. typhimurium TA98; [9]", "value": 37, "unit": "%"}, {"measurement": "Number of revertants (M ± SD)/ plate", "setting": "S. typhimurium TA98; [9]", "value": "532 ± 27", "unit": "revertants/plate"}, {"measurement": "antimutagenic effect class", "setting": "S. typhimurium TA98; [9]", "value": "** (moderate effect (25% - 40% inhibition))"}, {"measurement": "% inhibition", "setting": "S. typhimurium TA98; [10]", "value": 62, "unit": "%"}, {"measurement": "antimutagenic effect class", "setting": "S. typhimurium TA98; [10]", "value": "*** (strong antimutagenic effect (> 40% inhibition))"}, {"measurement": "% inhibition", "setting": "S. typhimurium TA98; [11]", "value": 41, "unit": "%"}, {"measurement": "antimutagenic effect class", "setting": "S. typhimurium TA98; [11]", "value": "*** (strong antimutagenic effect (> 40% inhibition))"}, {"measurement": "genotoxic potential", "setting": "[1]", "value": "not genotoxic"}]}
